pIC50: −log10 of the molar value. Read-outs that look alike come from different tables or passages of the source.
Tests used:
[1] = molecular target: T1, OCT2 (Homo sapiens, UniProt O15244); experiment: Inhibition of model substrate uptake in OCT2-overexpressing HEK293 cells; conditions: for pIC50: IC50, OCT2, Table S5, 2 μM ASP+ as model substrate; for selectivity ratio at 5 min / inhibition at 5 min, 20 μM: human, OCT2-overexpressing HEK293 cells; for selectivity ratio at 5 min: pH 7.4
T1 sequence (O15244 1-555): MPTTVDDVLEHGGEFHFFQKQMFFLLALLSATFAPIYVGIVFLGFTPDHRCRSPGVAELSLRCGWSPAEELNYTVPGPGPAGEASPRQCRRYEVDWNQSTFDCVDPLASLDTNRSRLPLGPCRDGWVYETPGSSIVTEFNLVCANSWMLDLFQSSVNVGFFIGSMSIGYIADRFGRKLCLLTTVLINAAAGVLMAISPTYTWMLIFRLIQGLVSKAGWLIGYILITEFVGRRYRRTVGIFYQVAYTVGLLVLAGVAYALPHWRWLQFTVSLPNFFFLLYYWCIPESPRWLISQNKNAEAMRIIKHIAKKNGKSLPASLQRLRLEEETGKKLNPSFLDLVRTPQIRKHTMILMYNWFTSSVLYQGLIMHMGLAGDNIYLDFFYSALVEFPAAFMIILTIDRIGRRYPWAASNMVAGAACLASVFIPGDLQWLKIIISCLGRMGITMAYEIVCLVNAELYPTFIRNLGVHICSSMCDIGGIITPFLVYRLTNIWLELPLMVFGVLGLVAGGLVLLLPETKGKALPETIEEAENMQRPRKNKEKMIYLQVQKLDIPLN

[2] = molecular target: T2, OCT1 (Homo sapiens, UniProt O15245); experiment: Inhibition of model substrate uptake in OCT1-overexpressing HEK293 cells; assay type: cell-based; set-up: expressed in transfected cells; host or cells: HEK293; conditions: for pIC50: 2 μM ASP+ or ethambutol as model substrate; for pIC50 / inhibition at 5 min, 20 μM: 5 min; for inhibition at 5 min, 20 μM / selectivity ratio at 5 min: human, OCT1-overexpressing HEK293 cells; for inhibition at 5 min, 20 μM: OCT1, 20 μM inhibitor; for selectivity ratio at 5 min: pH 7.4, ratio of the IC50 values of both isomers, label = isomer named in the cell (as a rule the one with the higher IC50), read-out: Stereoselectivity (x-fold for the named isomer)
T2 sequence (O15245 1-554): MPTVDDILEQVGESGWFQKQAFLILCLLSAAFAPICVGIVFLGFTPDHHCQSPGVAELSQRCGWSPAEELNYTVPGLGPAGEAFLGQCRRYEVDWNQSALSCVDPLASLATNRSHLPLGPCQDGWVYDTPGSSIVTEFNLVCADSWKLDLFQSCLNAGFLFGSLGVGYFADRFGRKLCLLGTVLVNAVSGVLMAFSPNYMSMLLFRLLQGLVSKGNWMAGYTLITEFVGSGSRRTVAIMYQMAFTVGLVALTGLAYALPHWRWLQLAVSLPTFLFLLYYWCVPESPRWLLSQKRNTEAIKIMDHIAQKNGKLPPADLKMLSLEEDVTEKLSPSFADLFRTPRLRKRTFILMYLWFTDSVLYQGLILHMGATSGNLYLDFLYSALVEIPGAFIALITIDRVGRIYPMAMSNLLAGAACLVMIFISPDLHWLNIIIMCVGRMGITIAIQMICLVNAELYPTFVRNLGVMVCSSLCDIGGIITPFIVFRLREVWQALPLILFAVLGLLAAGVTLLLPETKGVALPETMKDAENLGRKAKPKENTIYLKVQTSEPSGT
Method: Koepsell and Gorbulev (University of Würzburg, Germany).
Fluorescence quantification was performed in technical duplicates.

[3] = pH 7.4, probe (S,S)-ethambutol (2 μM), (S,S)-Ethambutol inhibition [%], OCT2, 20 μM inhibitor, 2 μM (S,S)-ethambutol, 5 min
[4] = pH 7.4, probe ASP+ (2 μM), ASP+ inhibition [%], OCT2, 20 μM inhibitor, 2 μM ASP+, 5 min
[5] = pH 7.4, probe N-ethyllidocaine (2 μM), N-Ethyllidocaine inhibition [%], OCT2, 20 μM inhibitor, 2 μM N-ethyllidocaine, 5 min
[6] = pH 7.4, probe (S,S)-ethambutol (2 μM), (S,S)-Ethambutol inhibition [%], 2 μM (S,S)-ethambutol
[7] = pH 7.4, probe ASP+ (2 μM), 2 μM ASP+, mean of three experiments, read-out: ASP+ inhibition [%]
[8] = pH 7.4, probe sumatriptan (2 μM), 2 μM sumatriptan, read-out: Sumatriptan inhibition [%]

pIC50 ([1]; 5 min)	inhibition at 5 min, 20 μM [1, 3] [%]	inhibition at 5 min, 20 μM [1, 4] [%]	inhibition at 5 min, 20 μM [1, 5] [%]	pIC50 ([2]; OCT1, Table S5, read-out: IC50)	inhibition at 5 min, 20 μM [2, 6] [%]	inhibition at 5 min, 20 μM [2, 7] [%]	inhibition at 5 min, 20 μM [2, 8] [%]	(S,S)-Ethambutol inhibition [%] ([1]; OCT2, 20 μM inhibitor, 2 μM (S,S)-ethambutol, 5 min)	N-Ethyllidocaine inhibition [%] ([1]; OCT2, 20 μM inhibitor, 2 μM N-ethyllidocaine, 5 min)	pIC50 ([2]; IC50, OCT1, Table S5)	Structure (SMILES)	selectivity ratio at 5 min [1]	selectivity ratio at 5 min ([2]; OCT1, Table S5)
4.08	15.8	16.4	19.6	4.49	34.9	12.1	35.6	–	–	–	CCCN[C@H]1CCc2nc(N)sc2C1 [(S)-Pramipexole]	4	1.6
4.50	–	86.1	–	–	93.7	49.1	73	7.4	28.2	3.77	CCN(CC)CC#CCOC(=O)[C@](O)(c1ccccc1)C1CCCCC1 [(R)-Oxybutynine]	1.6	1.2
–	13.3	17.2	7.3	–	26.9	10	44.5	–	–	–	CN(C)CCc1c[nH]c2ccc(C[C@H]3COC(=O)N3)cc12 [(S)-Zolmitriptan]	–	–
